By melting point is commonly meant the temperature of the solid-liquid transition.

Where only a bound is given, the exact number is not on record here.

The text below walks through data of a melting point compilation (Tetko et al.; mined from patent text by program, amines drawn as free bases though some values may be those of a salt).

`CC(C)(C)NC(=O)[C@@H]1[C@@H](O)CCN1C(=O)OC(C)(C)C`: the melting point was in the range of 122 to 124 °C.
Under `CN1c2ccccc2CC1c1ccccc1NC(=O)C(C)(C)C` (stereo not given) stands 133 to 135 °C; under `CN1C(=O)CC(c2ccc(N)cc2)C1C(O)c1ccc(-c2ccccc2)s1` (stereo not given), 221 to 222 °C.
As for `COCCOc1ccccc1-c1cc(Nc2cccc(S(C)(=O)=O)c2)ncn1`, the figure is 153 to 154 °C; as for `CC(=O)ONc1nc(CC(=O)Nc2cccc(C(F)(F)F)c2)cs1`, 137 to 140 °C.
Under `COc1cc2c(Nc3ccc(Sc4nccn4C)c(Cl)c3)c(C#N)cnc2cc1N1CCC(N2CCCC2)CC1` stands 225 to 229 °C; under `CCOC(=O)Cc1coc2c(OC)ccc(C(=O)Cc3c(Cl)cncc3Cl)c12`, 105 to 115 °C.
`CC(C)(C)c1ccc(CCC(CC2CCCCC2)OC(=O)OCC(=O)O)cc1NC(=O)CC1c2ccccc2Oc2ccccc21` (stereo not given) gave a melting point of 143 to 145 °C.
Under `COc1cc2c(cc1Nc1ncc(Cl)c(Nc3cc(C#N)ccc3OC)n1)CCN(CC(N)=O)CC2` stands 100 to 125 °C; under `CNC(=S)Nc1ncc(Cl)cc1Cl`, 105 to 109 °C; under `O=c1[nH]c2ncc(-c3ccc(O)cc3)nc2n1CC1CCCO1` (stereo not given), 256 to 258 °C.
Regarding `CCCCc1nn(-c2ccccc2C(F)(F)F)c(=O)n1Cc1ccc(-c2ccccc2S(=O)(=O)NC(=O)OC(C)(C)C)cc1F`, the melting point was 83 to 85 °C.
Under `CCOC(=O)c1cnc2c3c(ccc2c1)C(=O)CC=N3` stands 250 to 252 °C; under `CN1CC(c2ccc(Cc3ccc(F)cc3)cn2)=C(O)C1=O`, 204 to 206 °C; under `CCOCOc1ccc(-c2ccc(C(F)(F)F)cc2)cc1Sc1cc(-c2ccc(C(F)(F)F)cc2)ccc1OCOCC`, 61 to 62 °C.
Under `COC(=O)c1cc(-c2ccccc2)c(=O)n2c1-c1sc(Br)cc1CC2` stands 170 to 171 °C.
As for `Cc1cc2n[nH]c(=O)n2nc1-c1ccc(C#N)cc1`, the figure is over 300 °C; as for `CC(=O)N[C@@H]1CN2C(=O)N(c3cc(Cl)cc(Cl)c3)C(=O)[C@@]2(Cc2ccc(Br)cc2)C1`, 141 °C.
`CN1C(=O)C(CC(O)C#N)c2ccccc21` (stereo not given): the melting point was in the range of 136 to 138 °C.
Take `CCc1cc(OCc2ccc(-c3ccccc3-c3nnn(C(c4ccccc4)(c4ccccc4)c4ccccc4)n3)cc2)c2nc(OC(C)C)c(Cl)cc2n1`: the melting point lay in the range of 179 to 183 °C.
Under `Cc1c(F)c(F)cc2c1c(=O)c(C(=O)O)cn2-c1ccc(F)cc1` stands 255 to 257 °C; under `CC(C)(C)c1cc(Br)c(O)c(C#N)c1`, 69 to 71 °C.
Under `CCOC(=O)c1c(C)nn2c(-c3cccnc3)ccnc12` stands 145 to 146 °C.
With `COc1cc(-c2nc(C(C)C)no2)cc2oc(=O)c(C)c(C)c12`, the melting point stood at 142 °C.
With `Cc1noc(NS(=O)(=O)c2ccc(Nc3ccc(N)cc3N)cc2)c1C`, the melting point lay within 181 to 183 °C.
As for `CCOc1ccc2c(c1)C(c1ccccc1)C(=O)N2` (stereo not given), the figure is 125 to 130 °C; as for `CS(=O)(=O)c1ccc(-c2cc(C(=O)c3ccc(Cl)cc3)sc2N2CCOCC2)cc1`, 169 °C; as for `Nc1ccc(S)c(C(F)(F)F)c1`, 35 to 36.5 °C.
As for `COc1nccc(C(F)(F)F)c1S(=O)(=O)Nc1nc2c(OC)cnc(OC)n2n1`, the figure is 214 to 216 °C.
Under `CCc1cc(OCc2ccc(-c3ccccc3-c3nnn(C(c4ccccc4)(c4ccccc4)c4ccccc4)n3)cc2)c2c(n1)CCN(C(C)=O)C2` stands 97 to 98 °C.
In turn, `Cc1cc(C)cc(Oc2c(C(C)C)c(=O)[nH]c(=O)n2CCC2C=CCC2)c1` (stereo not given) registered a melting point of 148 to 149 °C.
Under `CC1(C)NC(=O)c2ccc(O)cc21` stands 231 to 233 °C; under `O=C(NCCCC(=O)N1CCCC1=O)c1cc(Br)no1`, 141 to 142 °C; under `O=C1c2ccccc2OCOc2ccccc21`, 93 to 95 °C.
Under `Cn1nc(C(=O)O)c(=O)n(-c2ccc(Cl)cc2)c1=O` stands 234 to 236 °C; under `Cc1nnc(-c2cc(Cl)c(Cl)c(Cl)n2)s1`, 148 to 150 °C.
Under `O=S(=O)(c1ccc(Cl)cc1)C1(c2cccnc2Cl)CCCCC1` stands 129 to 131 °C; under `CSc1c(C(=O)O)ccc(C)c1C`, 118 to 120 °C; under `CCOc1ccc(-c2nc(=O)c3ccccc3s2)cn1`, 152 to 156 °C.
As to `C1=NCC2=C3C(=C1)CCCC3CCC2` (stereo not given), the melting point lay within 207 to 209 °C.
As for `NCCN1CCC(NC(=O)c2cc(Cl)c(N)c3c2OCCC3)CC1`, the figure is 130 °C; as for `CCCCOc1ccccc1Nc1ncc(C(=O)O)c(=O)[nH]1`, 212 to 214 °C.
Under `COc1ccc2c(C(C)C(=O)OC3CC(=O)NC3=O)cccc2c1` (stereo not given) stands 126 °C.
Under `O=C(O)Cc1cc(C(=O)C=Cc2ccc(C(=O)O)cc2)ccc1O` stands over 260 °C; under `CC(=O)OCC1OC(Oc2ccc(N)cc2)C(OC(C)=O)C(OC(C)=O)C1OC(C)=O` (stereo not given), 130 to 133 °C; under `Cc1c(NCCCN2CCN(c3ccccc3O)CC2)n(C)c(=O)n(C)c1=O`, 203 to 205 °C.
Compound `Nc1nc(N)nc(-c2cnc3ccccc3c2)n1` came in with a melting point of over 250 °C.
As for `CN(C(=O)Cc1ccc([N+](=O)[O-])cc1)C1c2ccccc2CCC1N1CCCC1` (stereo not given), the figure is 135 °C.
Compound `O=C(/C=C/C=C(c1ccc(F)cc1)c1ccc(F)cc1)Oc1ccc([N+](=O)[O-])cc1` registered a melting point of 112 to 114 °C.
With `Cc1ccc2nc(N3CC[C@H](NCCO)C3)ccc2c1NC(=O)CC1CCCCC1`, the melting point lay within 204 to 207 °C.
As for `CCOC(=O)C1=C(C)Nc2nc(N3CCOCC3)nc(N3CCOCC3)c2C1c1ccncc1` (stereo not given), the figure is 209 °C.
As for `N#Cc1c[nH]c(C(F)(F)F)c1-c1ccc(Cl)cc1`, the figure is 114 to 115 °C; as for `CCOC(=O)C(Sc1ccc(O)cc1)c1ccc(Br)cc1` (stereo not given), 55.6 °C; as for `COc1c(Cl)cc2nc3c(=O)[nH][nH]c(=O)c3c(O)c2c1Cl`, 210 to 211 °C.
As for `Oc1ccc(N2CCN(Cc3nc4ccccc4o3)CC2)cc1`, the figure is 155 to 156 °C; as for `N=C(N)c1c[nH]c2ccc(CCNC(=O)c3ccc(-c4ccnc(N5CCCC5C(N)=O)n4)cc3)cc12` (stereo not given), 139 to 141 °C; as for `COc1ccc(-c2c[nH]c3c(OC)ccc(OC)c3c2=O)cc1`, 124 to 125 °C.
For `Clc1ccc(Oc2cncc3sc(-c4nnn[nH]4)cc23)cc1`, the melting point was in the range of 250 to 254 °C.
Under `CCCCCCCCc1ccc(C=CC(=O)CC(=O)OCC)cc1` stands 57 °C.
Under `COC(=O)c1cccn1Cc1ccccc1[N+](=O)[O-]` stands 105 to 107 °C; under `Cc1cccc(COc2cccc(OCc3ccc(C(C)(C)C)cc3)c2)c1C(=O)O`, 122 to 123 °C.
Under `COc1ccc(C(C)=Cc2ccncc2)c2c1OC(C)(C)C2` stands 85 to 87 °C; under `CC(C)(C)Cc1cc(C2(N)CC2)no1`, 39 to 47 °C; under `Oc1ccc(C(O)CNCCCn2cnc3ccccc32)cc1` (stereo not given), 146 to 148 °C.
Take `COC(CN(C)c1nccc(Oc2ccc(NC(=O)c3cc(F)cc(N4CCOCC4)c3)c3ccccc23)n1)OC`: the melting point was in the range of 92 to 94 °C.
For the compound `CCn1cc(C(=O)O)c(=O)c2cc(F)c(S(=O)(=O)CC)nc21`, the melting point is 249 to 252 °C.
Under `CCc1[nH]nc(C(=O)NC2CCCC2)c1NC(=O)c1cnccn1` stands 175 to 176 °C; under `O=C(O)CN1CCC(OC(c2ccc(F)cc2)c2ccc(F)cc2)CC1`, 126 to 128 °C; under `CNC(=O)N1CC(Oc2ccc(C(N)=O)cc2)C1`, 208 to 210 °C.
Under `Clc1cccc(-c2nc(Cl)cc(Cl)n2)c1` stands 118 to 120 °C.
With `COc1ccc(CC(=O)NCC(OC)OC)cc1OC`, the melting point is 60 to 63 °C.
As for `COc1cc(N)c2nccc(C)c2c1OCCCCCc1ccco1`, the figure is 41 to 42 °C; as for `O=C1c2ccccc2CN1c1ccc(OCCN2CCN(c3nsc4ccccc34)CC2)cc1`, 166 to 167 °C.
The compound `CC(Oc1ccc([N+](=O)[O-])cc1F)c1c(Cl)cccc1Cl` (stereo not given) had a melting point of 120 °C.
As for `CCCCCCCCCCCCCCC(COC(C)=O)(COC(C)=O)NC(C)=O`, the figure is 84 to 85.5 °C; as for `CC(=O)Nc1nc2c(Oc3cc(-c4ccc(C(F)(F)F)cc4NC(C)=O)ncn3)cccc2s1`, 259 to 261 °C; as for `CCN(CC)c1ccc(C2(c3ccc(N(CC)CC)cc3N(CC)CC)OC(=O)c3ccccc32)c(Cl)c1` (stereo not given), 141 to 143 °C.
Under `O=C(c1cnc(Cc2ccc(Cl)cc2)[nH]1)N1CCC(c2ccccc2)(c2ccccc2)CC1` stands 105 to 106 °C; under `Cc1cc([N+](=O)[O-])ccc1NC(=O)n1nc(Oc2cccc(C(F)(F)F)c2)cc1C`, 165 to 166 °C; under `COc1cc([N+](=O)[O-])c(F)cc1Br`, 74 to 76 °C.
The compound `CC(C)(C)OC(=O)[C@H]1C[C@@H](S(=O)(=O)c2ccccc2F)[C@@H](c2ccccc2F)N1` (racemic) registered a melting point of 202 °C.
As for `CNC(=O)N1N=C(c2ccc([N+](=O)[O-])c(C)c2)c2cc3c(cc2C=C1C)OCO3`, the melting point was in the range of 246 to 248 °C.
Under `Cc1ccc(S(=O)(=O)NC(=O)CC(=O)N2CCCC2C(=O)N2CCN(C3(N4CCCC4)N=CC=C(N4CCCC4)N3)CC2)cc1` (single isomer, unassigned; (-)) stands 170 °C.
As for `CC(C)N1CC([N+](=O)[O-])=C(NCC(=O)O)C1=O`, the figure is 180 to 185 °C; as for `CC(C)c1nc2c(nc1C(C)C)-c1c(c(-c3ccc(C(=O)O)cc3)nn1Cc1cccnc1)CC2`, 204 to 206 °C.
